Data taken from EPA's ToxRefDB 2.

Tests used:
[1] = tested on: rat; settings: Combined chronic toxicity/carcinogenicity; fischer; Oral; Feed; dose end: 104 week; group: systemic; systemic / pathology microscopic / stomach / adenocarcinoma + systemic / pathology microscopic / stomach / adenoma + systemic / in life …
[2] = tested on: mouse; settings: Carcinogenicity; b6c3f1; Oral; Feed; dose end: 96 week; group: systemic; systemic / pathology microscopic / stomach / adenoma + systemic / in life observation / body weight / body weight + systemic / in life …
[3] = tested on: rat; settings: Prenatal developmental toxicity study; sprague dawley; Oral; Gavage/Intubation; dose end: 17 GD; group: maternal; systemic / in life observation / clinical signs / [other] + systemic / in life observation / clinical signs / ataxia + systemic / in life …
[4] = tested on: rabbit; settings: Prenatal developmental toxicity study, new zealand white, Oral, Gavage/Intubation, dose end: 19 GD
[5] = tested on: rat; settings: Multigenerational reproductive toxicity study; sprague dawley; Oral; Gavage/Intubation; dose end: 1 generation; group: parental; systemic / in life observation / body weight / body weight gain + systemic / in life observation / clinical signs / skin discoloration + …
[6] = tested on: rat; settings: Peri- and post-natal toxicity study (Segment III), sprague dawley, Oral, Gavage/Intubation, dose end: 25 PND
[7] = tested on: rat; settings: Prenatal developmental toxicity study, sprague dawley, Inhalation, Whole-Body, dose end: 15 GD, group: maternal
[8] = tested on: rat; settings: Multigenerational reproductive toxicity study, sprague dawley, Inhalation, Whole-Body, dose end: 2 generation
[9] = tested on: rat; settings: Multigenerational reproductive toxicity study, sprague dawley, Oral, Feed, dose end: 2 generation
[10] = tested on: dog; settings: Chronic toxicity, beagle, Oral, Capsule, dose end: 52 week, group: systemic
[11] = tested on: mouse; settings: Carcinogenicity, cd1, Oral, Feed, dose end: 105 week, group: systemic
[12] = tested on: dog; settings: Subchronic oral toxicity in nonrodent, beagle, Capsule, dose end: 14 week, group: systemic
[13] = tested on: mouse; settings: Prenatal developmental toxicity study, other, Oral, Gavage/Intubation, dose end: 15 GD
[14] = tested on: rat; settings: Combined chronic toxicity/carcinogenicity; sprague dawley; Oral; Feed; dose end: 104 week; group: systemic; systemic / in life observation / body weight / body weight + systemic / in life observation / body weight / body weight gain + systemic / …
[15] = tested on: rat; settings: Subchronic oral toxicity in rodents, sprague dawley, Gavage/Intubation, dose end: 14 week, group: systemic
[16] = tested on: rabbit; settings: Prenatal developmental toxicity study, new zealand white, Oral, Gavage/Intubation, dose end: 18 GD
[17] = tested on: rat; settings: Subchronic oral toxicity in rodents, sprague dawley, Feed, dose end: 90 day, group: systemic, systemic / in life observation / body weight / body weight gain + systemic / pathology microscopic / liver / hypertrophy + systemic / …
[18] = tested on: rat; settings: Prenatal developmental toxicity study, sprague dawley, Oral, Gavage/Intubation, dose end: 17 GD
[19] = group: developmental, developmental / developmental landmark / incisor eruption / incisor eruption + developmental / developmental malformation / bone / delayed …
[20] = group: maternal, systemic / in life observation / body weight / body weight + systemic / in life observation / clinical signs / [other] + systemic / in life …
[21] = group: maternal, reproductive / offspring survival early / dead fetuses / dead fetuses
[22] = group: parental, systemic / in life observation / clinical signs / skin discoloration + systemic / in life observation / clinical signs / urine, …
[23] = systemic / in life observation / body weight / body weight gain + systemic / organ weight / spleen / absolute + systemic / organ weight / …
[24] = group: offspring, systemic / in life observation / body weight / offspring (pup) weight
[25] = group: parental, systemic / organ weight / epididymis / absolute + systemic / organ weight / epididymis / relative to body weight + systemic / organ weight…
[26] = group: reproductive, reproductive / reproductive performance / fertility / fertility + reproductive / reproductive performance / pregnancy / pregnancy + …
[27] = group: parental, systemic / in life observation / body weight / body weight gain + systemic / in life observation / food consumption / food consumption
[28] = group: parental, systemic / in life observation / food consumption / food consumption
[29] = systemic / organ weight / liver / absolute + systemic / organ weight / liver / relative to body weight + systemic / pathology microscopic / …
[30] = systemic / pathology microscopic / gallbladder / discolored + systemic / pathology microscopic / gallbladder / vacuolization cytoplasmic
[31] = systemic / in life observation / mortality / mortality
[32] = systemic / hematology / anemia / anemia - nos + systemic / hematology / erythrocyte (rbc) count differential / erythrocyte (rbc) + systemic…
[33] = group: developmental, systemic / in life observation / body weight / fetal weight
[34] = group: maternal, systemic / in life observation / body weight / body weight gain + systemic / in life observation / food consumption / food consumption
[35] = systemic / in life observation / clinical signs / alopecia
[36] = systemic / pathology microscopic / kidney / calculus + systemic / pathology microscopic / kidney / hyperplasia + systemic / pathology …
[37] = group: developmental, developmental / developmental malformation / bone / incomplete ossification + developmental / developmental malformation / lung / abnormal …
[38] = group: maternal, reproductive / reproductive performance / resorptions / resorptions + systemic / in life observation / body weight / body weight gain + …
[39] = group: maternal, systemic / in life observation / body weight / body weight gain + systemic / in life observation / food consumption / food consumption + …

Structure (SMILES): Oc1ccccc1O [Catechol]
- LEL [1]: 400 mg/kg/day
- LOAEL [1]: > 400 mg/kg/day
- NEL [1]: < 400 mg/kg/day
- NOAEL [1]: ≥ 400 mg/kg/day
- LEL [2]: 1200 mg/kg/day
- LOAEL [2]: > 1200 mg/kg/day
- NEL [2]: < 1200 mg/kg/day
- NOAEL [2]: ≥ 1200 mg/kg/day

Structure (SMILES): CCc1cc(S(=O)(=O)O)c2cc(C(C)C)cccc1-2 [Egualen]
- LEL [3]: 77 mg/kg/day
- LOAEL [3]: > 600 mg/kg/day
- NEL [3]: 10 mg/kg/day
- NOAEL [3]: ≥ 600 mg/kg/day
- LEL [4, 19]: 135 mg/kg/day
- LOAEL [4, 19]: > 135 mg/kg/day
- NEL [4, 19]: 45 mg/kg/day
- NOAEL [4, 19]: ≥ 135 mg/kg/day
- LEL [4, 20]: 135 mg/kg/day
- LOAEL [4, 20]: > 135 mg/kg/day
- NEL [4, 20]: 45 mg/kg/day
- NOAEL [4, 20]: ≥ 135 mg/kg/day
- LEL [5]: 200 mg/kg/day
- LOAEL [5]: > 200 mg/kg/day
- NEL [5]: 50 mg/kg/day
- NOAEL [5]: ≥ 200 mg/kg/day
- LEL [6, 21]: 300 mg/kg/day
- LOAEL [6, 21]: > 300 mg/kg/day
- NEL [6, 21]: 55 mg/kg/day
- NOAEL [6, 21]: ≥ 300 mg/kg/day
- LEL [6, 22]: 55 mg/kg/day
- LOAEL [6, 22]: > 300 mg/kg/day
- NEL [6, 22]: 10 mg/kg/day
- NOAEL [6, 22]: ≥ 300 mg/kg/day

Structure (SMILES): O=[N+]([O-])c1ccccc1 [Nitrobenzene]
- LOAEL [7, 23]: > 40 ppm
- NEL [7, 23]: 1 ppm
- NOAEL [7, 23]: ≥ 40 ppm
- LEL ([7]; systemic / organ weight / spleen / absolute + systemic / organ weight / spleen / relative to body weight): 10 ppm
- LEL [8, 24]: 40 ppm
- LOAEL [8, 24]: > 40 ppm
- NEL [8, 24]: 10 ppm
- NOAEL [8, 24]: ≥ 40 ppm
- LEL [8, 25]: 40 ppm
- LOAEL [8, 25]: > 40 ppm
- NEL [8, 25]: 10 ppm
- NOAEL [8, 25]: ≥ 40 ppm
- NEL ([8]; group: reproductive, reproductive / reproductive performance / fertility / fertility + reproductive / reproductive performance / pregnancy / pregnancy): 10 ppm
- LEL [8, 26]: 40 ppm
- LOAEL [8, 26]: > 40 ppm
- NOAEL [8, 26]: ≥ 40 ppm

Structure (SMILES): c1ccc2[nH]c(-c3cscn3)nc2c1 [Thiabendazole]
- LEL [9, 24]: 90 mg/kg/day
- LOAEL [9, 24]: 90 mg/kg/day
- NEL [9, 24]: 30 mg/kg/day
- NOAEL [9, 24]: 30 mg/kg/day
- LOAEL [9, 27]: 30 mg/kg/day
- NOAEL [9, 27]: 10 mg/kg/day
- LEL [9, 28]: 10 mg/kg/day
- NEL [9, 28]: < 10 mg/kg/day
- LOAEL [10, 29]: 40 mg/kg/day
- NOAEL [10, 29]: 10 mg/kg/day
- LEL [10, 30]: 10 mg/kg/day
- NEL [10, 30]: < 10 mg/kg/day
- LOAEL ([11]; systemic / in life observation / body weight / body weight gain): 92 mg/kg/day
- LEL [11, 31]: 6.95 mg/kg/day
- NEL [11, 31]: < 6.95 mg/kg/day
- NOAEL ([11]; systemic / in life observation / mortality / mortality + systemic / in life observation / body weight / body weight gain + systemic / organ …): 36.5 mg/kg/day
- LOAEL [12, 32]: > 150 mg/kg/day
- NEL [12, 32]: 35 mg/kg/day
- NOAEL [12, 32]: ≥ 150 mg/kg/day
- LEL ([12]; systemic / in life observation / clinical signs / emesis + systemic / pathology microscopic / gallbladder / vacuolization cytoplasmic): 75 mg/kg/day
- LEL [13, 33]: 100 mg/kg/day
- LOAEL [13, 33]: 100 mg/kg/day
- NEL [13, 33]: 25 mg/kg/day
- NOAEL [13, 33]: 25 mg/kg/day
- LEL [13, 34]: 100 mg/kg/day
- LOAEL [13, 34]: 100 mg/kg/day
- NEL [13, 34]: 25 mg/kg/day
- NOAEL [13, 34]: 25 mg/kg/day
- LEL [14]: 30.1 mg/kg/day
- LOAEL [14]: 30.1 mg/kg/day
- NEL [14]: 10.1 mg/kg/day
- NOAEL [14]: 10.1 mg/kg/day
- LEL [15, 35]: 25 mg/kg/day
- NEL [15, 35]: < 25 mg/kg/day
- LOAEL [15, 36]: 100 mg/kg/day
- NOAEL [15, 36]: 25 mg/kg/day
- LEL [16, 37]: 600 mg/kg/day
- LOAEL [16, 37]: 600 mg/kg/day
- NEL [16, 37]: 150 mg/kg/day
- NOAEL [16, 37]: 150 mg/kg/day
- LEL [16, 38]: 600 mg/kg/day
- LOAEL [16, 38]: 600 mg/kg/day
- NEL [16, 38]: 150 mg/kg/day
- NOAEL [16, 38]: 150 mg/kg/day
- LEL [17]: 37 mg/kg/day
- LOAEL [17]: 37 mg/kg/day
- NEL [17]: 9.4 mg/kg/day
- NOAEL [17]: 9.4 mg/kg/day
- LEL [18, 33]: 40 mg/kg/day
- LOAEL [18, 33]: 40 mg/kg/day
- NEL [18, 33]: 10 mg/kg/day
- NOAEL [18, 33]: 10 mg/kg/day
- LEL [18, 34]: 40 mg/kg/day
- LOAEL [18, 34]: 40 mg/kg/day
- NEL [18, 39]: 10 mg/kg/day
- NOAEL [18, 39]: 10 mg/kg/day
